ChEMBL document CHEMBL3046616, “Design, synthesis, and biological activities of milbemycin analogues” (2011)

Experiments:
Format in all cases: functional
Aphis fabae [1] = assay: Insecticidal activity against Aphis fabae (black bean aphid) infested soybean tender shoots at 0.625 mg/L measured 48 hr post compound dose by modified FAO dip method
Aphis fabae [2] = assay: Insecticidal activity against Aphis fabae (black bean aphid) infested soybean tender shoots at 2.5 mg/L measured 48 hr post compound dose by modified FAO dip method
Aphis fabae [3] = assay: Insecticidal activity against Aphis fabae (black bean aphid) infested soybean tender shoots at 10 mg/L measured 48 hr post compound dose by modified FAO dip method
Mythimna separata [4] = assay: Insecticidal activity against Mythimna separata (Oriental armyworm) fourth-instar larvae reared compound pre-treated corn leaves assessed as insect mortality at 0.625 mg/L measured 2 days post compound dose
Mythimna separata [5] = assay: Insecticidal activity against Mythimna separata (Oriental armyworm) fourth-instar larvae reared compound pre-treated corn leaves assessed as insect mortality at 2.5 mg/L measured 2 days post compound dose
Mythimna separata [6] = assay: Insecticidal activity against Mythimna separata (Oriental armyworm) fourth-instar larvae reared compound pre-treated corn leaves assessed as insect mortality at 10 mg/L measured 2 days post compound dose
Tetranychus cinnabarinus = assay: Insecticidal activity against Tetranychus cinnabarinus (carmine spider mite) […] assessed as larvicidal activity at 0.006 mg/L after 48 hr
Mythimna separata [7] = assay: Insecticidal activity against Mythimna separata (Oriental armyworm) fourth-instar larvae reared compound pre-treated corn leaves assessed as insect mortality at 200 mg/L measured 2 days post compound dose
Aphis fabae [8] = assay: Insecticidal activity against Aphis fabae (black bean aphid) infested soybean tender shoots measured 48 hr post compound dose by modified FAO dip method; set-up: concentration or dose not given beside the values

| SMILES | mortality at 0.625 µg/mL (Aphis fabae [1]) [%] | mortality at 2.5 µg/mL (Aphis fabae [2]) [%] | mortality at 10 µg/mL (Aphis fabae [3]) [%] | mortality at 0.625 µg/mL (Mythimna separata [4]) [%] | mortality at 2.5 µg/mL (Mythimna separata [5]) [%] | mortality at 10 µg/mL (Mythimna separata [6]) [%] | mortality at 0.006 µg/mL (Tetranychus cinnabarinus) [%] | mortality at 200 µg/mL (Mythimna separata [7]) [%] | mortality (Aphis fabae [8]) [%] |
| --- | --- | --- | --- | --- | --- | --- | --- | --- | --- |
| CCC(C)[C@H]1O[C@]2(CC[C@@H]1C)C[C@@H]1C[C@@H](C/C=C(\C)[C@@H](O[C@H]3C[C@H](OC)[C@@H](OC(=O)c4ccccc4)[C@H](C)O3)[C@@H](C)/C=C/C=C3\CO[C@@H]4[C@H](O)C(C)=C[C@@H](C(=O)O1)[C@]34O)O2 (stereo partly drawn) | 86.3 | 100 | 100 | 38.8 | 100 | 100 | 24.8 | – | – |
| CCC(C)[C@H]1O[C@]2(CC[C@@H]1C)C[C@@H]1C[C@@H](C/C=C(\C)[C@@H](O[C@H]3C[C@H](OC)[C@@H](OC(=O)Nc4cccc(C)c4)[C@H](C)O3)[C@@H](C)/C=C/C=C3\CO[C@@H]4[C@H](O)C(C)=C[C@@H](C(=O)O1)[C@]34O)O2 (stereo partly drawn) | 88.5 | 100 | 100 | 56.3 | 98.6 | 100 | 49.2 | – | – |
| CCC(C)[C@H]1O[C@]2(CC[C@@H]1C)C[C@@H]1C[C@@H](C/C=C(\C)[C@@H](OC(=O)c3cc(F)c(Cl)nc3Cl)[C@@H](C)/C=C/C=C3\CO[C@@H]4[C@H](O)C(C)=C[C@@H](C(=O)O1)[C@]34O)O2 (stereo partly drawn) | 8.3 | 38.2 | 66.9 | – | – | – | 7.7 | 50.9 | – |
| CCC(C)[C@H]1O[C@]2(CC[C@@H]1C)C[C@@H]1C[C@@H](C/C=C(\C)[C@@H](O[C@H]3C[C@H](OC)[C@@H](OC(=O)c4ccc(Cl)cc4)[C@H](C)O3)[C@@H](C)/C=C/C=C3\CO[C@@H]4[C@H](O)C(C)=C[C@@H](C(=O)O1)[C@]34O)O2 (stereo partly drawn) | – | – | – | 0 | 16.7 | 93.9 | 32.3 | – | 100 |
| CCC(C)[C@H]1O[C@]2(CC[C@@H]1C)C[C@@H]1C[C@@H](C/C=C(\C)[C@@H](OC(=O)C3C(C=C(Cl)Cl)C3(C)C)[C@@H](C)/C=C/C=C3\CO[C@@H]4[C@H](O)C(C)=C[C@@H](C(=O)O1)[C@]34O)O2 (stereo partly drawn) | – | – | – | 3.3 | 6.4 | 6.7 | 31.7 | – | 87.9 |
| CCC(C)[C@H]1O[C@]2(CC[C@@H]1C)C[C@@H]1C[C@@H](C/C=C(\C)[C@@H](OC(=O)c3ccc(Cl)cc3)[C@@H](C)/C=C/C=C3\CO[C@@H]4[C@H](O)C(C)=C[C@@H](C(=O)O1)[C@]34O)O2 (stereo partly drawn) | – | – | – | 0 | 24.9 | 100 | 26.9 | – | 87.9 |
| CCC(C)[C@H]1O[C@]2(CC[C@@H]1C)C[C@@H]1C[C@@H](C/C=C(\C)[C@@H](O[C@H]3C[C@H](OC)[C@@H](OC(=O)CC(C)(C)C)[C@H](C)O3)[C@@H](C)/C=C/C=C3\CO[C@@H]4[C@H](O)C(C)=C[C@@H](C(=O)O1)[C@]34O)O2 (stereo partly drawn) | 0 | 30.2 | 80.2 | 0 | 51.2 | 88.6 | 34.2 | – | – |
| CCC(C)[C@H]1O[C@]2(CC[C@@H]1C)C[C@@H]1C[C@@H](C/C=C(\C)[C@@H](O[C@H]3C[C@H](OC)[C@@H](OC(=O)C(C)(C)CC)[C@H](C)O3)[C@@H](C)/C=C/C=C3\CO[C@@H]4[C@H](O)C(C)=C[C@@H](C(=O)O1)[C@]34O)O2 (stereo partly drawn) | 89.1 | 100 | – | 0 | 83.6 | – | 39.6 | – | – |
| CCC(C)[C@H]1O[C@]2(CC[C@@H]1C)C[C@@H]1C[C@@H](C/C=C(\C)[C@@H](OC(=O)c3ccccc3OC)[C@@H](C)/C=C/C=C3\CO[C@@H]4[C@H](O)C(C)=C[C@@H](C(=O)O1)[C@]34O)O2 (stereo partly drawn) | – | – | – | 19.7 | 77.3 | 97 | 19.5 | – | 68.6 |
| CCC(C)[C@H]1O[C@]2(CC[C@@H]1C)C[C@@H]1C[C@@H](C/C=C(\C)[C@@H](O[C@H]3C[C@H](OC)[C@@H](OC(=O)Nc4ccc(Cl)cc4)[C@H](C)O3)[C@@H](C)/C=C/C=C3\CO[C@@H]4[C@H](O)C(C)=C[C@@H](C(=O)O1)[C@]34O)O2 (stereo partly drawn) | – | – | – | – | – | – | 29.8 | 77.9 | 90.3 |
| CCC(C)[C@H]1O[C@]2(CC[C@@H]1C)C[C@@H]1C[C@@H](C/C=C(\C)[C@@H](OC(=O)c3ccccc3)[C@@H](C)/C=C/C=C3\CO[C@@H]4/C(=N/OC)C(C)=C[C@@H](C(=O)O1)[C@]34O)O2 (stereo partly drawn) | – | – | – | – | – | – | 9.2 | 0 | 7.2 |
| CCC(C)[C@H]1O[C@]2(CC[C@@H]1C)C[C@@H]1C[C@@H](C/C=C(\C)[C@@H](OC(=O)c3ccc(F)cc3)[C@@H](C)/C=C/C=C3\CO[C@@H]4/C(=N/OC)C(C)=C[C@@H](C(=O)O1)[C@]34O)O2 (stereo partly drawn) | – | – | – | – | – | – | 19.8 | 0 | 0 |
| CCC(C)[C@H]1O[C@]2(CC[C@@H]1C)C[C@@H]1C[C@@H](C/C=C(\C)[C@@H](OC(=O)c3ccc(OC)cc3)[C@@H](C)/C=C/C=C3\CO[C@@H]4/C(=N/OC)C(C)=C[C@@H](C(=O)O1)[C@]34O)O2 (stereo partly drawn) | – | – | – | – | – | – | 5.9 | 0 | 6.3 |
| CCC(C)[C@H]1O[C@]2(CC[C@@H]1C)C[C@@H]1C[C@@H](C/C=C(\C)[C@@H](O[C@H]3C[C@H](OC)[C@@H](OC(=O)c4ccc(OC)cc4)[C@H](C)O3)[C@@H](C)/C=C/C=C3\CO[C@@H]4[C@H](O)C(C)=C[C@@H](C(=O)O1)[C@]34O)O2 (stereo partly drawn) | – | – | – | – | – | – | 9.7 | 100 | 92.3 |
| CCC(C)[C@H]1O[C@]2(CC[C@@H]1C)C[C@@H]1C[C@@H](C/C=C(\C)[C@@H](O[C@H]3C[C@H](OC)[C@@H](OC(=O)C4C(C=C(Br)Br)C4(C)C)[C@H](C)O3)[C@@H](C)/C=C/C=C3\CO[C@@H]4[C@H](O)C(C)=C[C@@H](C(=O)O1)[C@]34O)O2 (stereo partly drawn) | – | – | – | – | – | – | 13.4 | 83.3 | 100 |
| CCC(C)[C@H]1O[C@]2(CC[C@@H]1C)C[C@@H]1C[C@@H](C/C=C(\C)[C@@H](OC(=O)/C(=N\OC)c3ccccc3)[C@@H](C)/C=C/C=C3\CO[C@@H]4/C(=N/OC)C(C)=C[C@@H](C(=O)O1)[C@]34O)O2 (stereo partly drawn) | – | – | – | – | – | – | 49 | 0 | 6.5 |
| CCC(C)[C@H]1O[C@]2(CC[C@@H]1C)C[C@@H]1C[C@@H](C/C=C(\C)[C@@H](OC(=O)Nc3ccc(Cl)cc3)[C@@H](C)/C=C/C=C3\CO[C@@H]4[C@H](O)C(C)=C[C@@H](C(=O)O1)[C@]34O)O2 (stereo partly drawn) | – | – | – | – | – | – | 30.8 | 88.5 | 67.8 |
| C/C=C/C(=O)O[C@H]1[C@H](C)O[C@@H](O[C@@H]2/C(C)=C/C[C@@H]3C[C@@H](C[C@]4(CC[C@H](C)[C@@H](C(C)CC)O4)O3)OC(=O)[C@@H]3C=C(C)[C@@H](O)[C@H]4OC/C(=C\C=C\[C@@H]2C)[C@]43O)C[C@@H]1OC (stereo partly drawn) | – | – | – | – | – | – | 25.1 | 88.9 | 100 |
